According to patent US20120041026A1, “(R)-4-((4-((4-(TETRAHYDROFURAN-3-YLOXY)BENZO[D]ISOXAZOL-3-YLOXY)METHYL)PIPERIDIN-1-YL)METHYL)TETRAHYDRO-2H-PYRAN-4-OL, A PARTIAL AGONIST OF 5-HT4 RECEPTORS” (Pfizer Inc., priority 2010, published 2012):
Read-outs that look alike come from different tables or passages of the source. Marks after values point to notes of the source that are not given here.

Assays:
human 5-HT4d [1] = biological target: T1, human 5-HT4d (Homo sapiens, UniProt Q13639); assay: Agonist-induced cAMP elevation in human 5-HT4d transfected HEK293 cells, 96 well format; assay type: cell-based; conditions: normalized to 1,000 nM serotonin; for % IA (intrinsic activity, % agonist effect) RT: RT incubation, plate format not marked
T1 construct: expressed in transfected cells; host or cells: HEK293
Method: Agonist-induced cAMP elevation in human 5-HT4d transfected HEK293 cells, 96 well format: Human 5-HT4(d) transfected HEK293 cells were established in-house. The cells were grown at 37° C. and 5% CO2 in DMEM supplemented with 10% FCS, 20 mM HEPES (pH 7.4), 200 μg/mL hygromycin B (Gibco), 100 units/mL penicillin and 100 μg/mL streptomycin. The cells were grown to 60-80% confluence. On the previous day before treatment with compounds, dialyzed FCS (Gibco) was substituted for normal and the cells were incubated overnight. […] The cells were harvested with PBS/1 mM EDTA, centrifuged and washed with PBS. At the beginning of the assay, cell pellet was resuspended in DMEM supplemented with 20 mM HEPES, 10 μM pargyline (Sigma) and 1 mM 3-isobutyl-1-methylxanthine (Sigma) at the concentration of 1.6×10^5 cells/mL and left for 15 min at RT or 37° C. […] After incubation for 15 min at RT or 37° C., 1% Triton X-100 was added to stop the reaction (25 μL/well) and the plates were left for 30 min at RT. Homogenous time-resolved fluorescence-based cAMP (Schering) detection was made according to the manufacturer's instruction. […] Data was analyzed based on the ratio of fluorescence intensity of each well at 620 nm and 665 nm followed by cAMP quantification using cAMP standard curve. Enhancement of cAMP production elicited by each compound was normalized to the amount of cAMP produced by 1,000 nM serotonin (Sigma). Intrinsic activity is reported in Table 1, below, as % agonist effect.

[2] = Brain Penetration Assay (plasma and brain drug levels by LC/MS/MS); conditions: rat, 5 mg/kg subcutaneous; for Brain AUC / Plasma AUC: 0.5-4 h post-dose; for Brain:Plasma ratio: ratio of AUCs
Method: (§1) Blood samples were collected via cardiac puncture after euthanization with CO2 at 0.5, 1, 2, and 4 h post-dose. Samples were placed in EDTA tubes and kept on ice. Whole brain was collected via decapitation. Brain samples were immediately stored in dry ice. Blood samples were spun down to collect plasma. Plasma and brain samples were stored at −20° C. until analysis. LC/MS/MS was used to measure plasma and brain drug levels.

[3] = system: THLE-2 (transformed human liver epithelial) cells; assay: THLE assay (cell viability by cellular ATP); assay type: cell-based; conditions: read-out: THLE IC50
Method: THLE assay: The THLE assay is predictive of general cell health and measures cell depletion in a human cell line of hepatic origin. THLE-2 (transformed human liver epithelial) cells were obtained from ATCC(CRL-2706 or CRL-10149) and cultured according to ATCC's recommendation. Media consisted of basal medium (BEGM Bullet Kit, Lonza Cat #CC-3170), supplemented with 10% fetal bovine serum (Sigma Cat #F4135) and 2.5 ng/L hEFG (BD Biosciences Cat #356052) and 700 ng/L phosphoethanolamine (Sigma Cat #p-0503). Cells were cultured in T175 human fibronectin/collagen/bovine serum albumin coated flasks. For each experiment, cells were plated onto 384 well plates (custom order, BD Biosciences Cat #359298) at a cell density of 2.5×10^3/well in a total medium volume of 25 μL/well. Plates were incubated for 24 h at 37° C., 5% CO2. […]
Following the 72 h exposure to test compounds, cell viability in each well was determined by measuring the concentration of cellular ATP using the Lonza Vialight™ Plus Cell Proliferation/Cytoxicity Kit (Lonza cat: LT07-121) according to the manufacturer's protocol. The ATP concentration was determined by reading luminescence using a Wallac Envision plate reader (Perkin Elmer, Waltham, Mass., USA). Percent of viable cells relative to no-drug treated controls was determined for each well. […]

[4] = rat, in vivo
Method: as §1

[5] = human, 1 uM, pH 7.4
Method: (§2) Human Liver Microsome Stability Assay: Human liver microsomes (HLMs) are used in a metabolic stability assay to determine the NADPH-dependent in vitro apparent intrinsic metabolic clearance (CLint,app) of a drug (primarily mediated by P450 metabolism). In the HLM assay, test compounds are incubated with HLMs & an NADPH regenerating system in 100 mM potassium phosphate buffer (pH 7.4). The HLMs used in this assay are prepared as a pool from many individual donors. The concentration of HLMs and test compound are 0.71 mg protein/ml and 1 uM, respectively. The reaction is started by the addition of microsomes and buffer to compound. At 0, 5, 10, 20, 30, and 60 minutes, the sample is crashed with ACN/IS (3 times the incubation volume), spun at 4° C. and 3500 rpm for 10 minutes. A matrix and 60 minute w/o NADPH sample are also incubated for 60 minutes serving as negative and positive controls. The matrix sample contains buffer, microsomes, and NADPH (no compound); where as, the 60 minute w/o NADPH sample contains buffer, microsomes, and compound (no NADPH). After centrifugation, the supernatant is removed from the sample, combined with equal parts of water, and stored in the refrigerator until analysis. Drug levels are quantified by mass spectrometry. Clearance is frequently expressed as an extraction ratio (Er) which is calculated as hepatic clearance/hepatic blood flow (range 0-1).

in vivo = conditions: male, Sprague-Dawley, rat, sc, 5 mg/kg
Method: as §1

[6] = Human Liver Microsome Stability Assay; conditions: HLM 0.71 mg protein/ml, 1 uM compound, NADPH; hepatic clearance/hepatic blood flow (range 0-1)
Method: as §2

human 5-HT4d [7] = biological target: T1, human 5-HT4d; assay: Agonist-induced cAMP elevation in human 5-HT4d transfected HEK293 cells, 384 well format; assay type: cell-based; conditions: normalized to 1 uM serotonin
Method: The cells were grown to 60-80% confluence. […] Intrinsic activity is reported in Table 1, below, as % agonist effect.

T1 sequence (Q13639 1-360 isoform Q13639-3): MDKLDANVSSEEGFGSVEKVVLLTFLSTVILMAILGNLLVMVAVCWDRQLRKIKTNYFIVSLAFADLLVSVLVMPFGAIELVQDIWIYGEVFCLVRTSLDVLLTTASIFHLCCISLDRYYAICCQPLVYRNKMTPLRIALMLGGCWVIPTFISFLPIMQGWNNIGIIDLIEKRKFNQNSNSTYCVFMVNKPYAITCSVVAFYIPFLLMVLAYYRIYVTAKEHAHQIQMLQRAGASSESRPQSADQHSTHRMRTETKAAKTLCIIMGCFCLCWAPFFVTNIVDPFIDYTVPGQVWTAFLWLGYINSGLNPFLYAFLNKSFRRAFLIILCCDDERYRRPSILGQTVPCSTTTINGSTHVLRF

Compound	% IA (intrinsic activity, % agonist effect) 37° C., 96-well format (human 5-HT4d [1])	% IA (intrinsic activity, % agonist effect) RT (human 5-HT4d [1]) [%]	Er (extraction ratio) [6]	other results
O=C(O)C1(CN2CCC(COc3noc4cccc(OCC(F)(F)F)c34)CC2)CCOCC1 [B]	103^a %	56.3		Brain AUC [2]: 160 ng·h/g; Plasma AUC [2]: 4090 ng·h/mL; Brain:Plasma ratio [2]: 0.039
OC1(CN2CCC(COc3noc4cccc(O[C@@H]5CCOC5)c34)CC2)CCOCC1 [Compound X, (R)-4-((4-((4-(tetrahydrofuran-3-yloxy)benzo[d]isoxazol-3-yloxy)methyl)piperidin-1-yl)methyl)tetrahydro-2H-pyran-4-ol]				IC50 ([3]; Homo sapiens, THLE-2, 72 h): > 300 µM; Brain AUC ([4]; male, Sprague-Dawley, sc, 5 mg/kg): 1790 ng·h/g; brain penetration (in words) [4]: freely crosses the blood brain barrier; Er (extraction ratio) [5]: 0.62; AUC (in vivo): 1760 ng·h/mL
CC(C)COc1cccc2onc(OCC3CCN(CC4(C(=O)O)CCCC4)CC3)c12 [D]	95.0^a %	36.0	0.36	
CC(C)COc1cccc2onc(OCC3CCN(CC4(C(=O)O)CCOCC4)CC3)c12 [F]	118^a %	55.5	0.28	Brain AUC [2]: 319 ng·h/g; Plasma AUC [2]: 2950 ng·h/mL; Brain:Plasma ratio [2]: 0.108
O=C(O)C1(CN2CCC(COc3noc4cccc(OCC5(CO)CCCC5)c34)CC2)CCOCC1 [G]	79.0^a %	33.0	<0.27	
OC1(COc2cccc3onc(OCC4CCN(CC5(O)CCOCC5)CC4)c23)CCCC1 [H]	104%	30.8	0.83	% IA (intrinsic activity, % agonist effect) 37° C., 384-well format (human 5-HT4d [7]): 50%
CC(C)COc1cccc2onc(OCC3CCN(CC4(O)CCOCC4)CC3)c12 [J]		39.1	0.78	% IA (intrinsic activity, % agonist effect) 37° C., 384-well format (human 5-HT4d [7]): 55^b %; IC50 ([3]; 72 h exposure, concentration range 300-0.058 μM): 56 µM
